Patent US10689401B2, “C5-C6-oxacyclic fused iminothiazine dioxide compounds bearing an ether linker as BACE inhibitors, compositions, and their use” (Merck Sharp & Dohme Corp., priority 2016, dated 2020)

How the values were obtained:
[1] = biological target: purified human autoBACE-2 (Homo sapiens (Human), UniProt Q9Y5Z0); test: BACE-2 Assay (BACE-HTRF assay); assay type: biochemical; conditions: Ki calculated from IC50 using the Cheng-Prusoff equation; QSY7-EISEVNLDAEFC-Eu-amide substrate, pH 5.0
Experimental: Inhibitor IC50s at purified human autoBACE-2 are determined in a time-resolved endpoint proteolysis assay that measures hydrolysis of the QSY7-EISEVNLDAEFC-Eu-amide FRET peptide substrate (BACE-HTRF assay). BACE-mediated hydrolysis of this peptide results in an increase in relative fluorescence (RFU) at 620 nm after excitation with 320 nm light. Inhibitor compounds, prepared at 3× the desired final concentration in 1×BACE assay buffer (20 mM sodium acetate pH 5.0, 10% glycerol, 0.1% Brij-35) supplemented with 7.5% DMSO are preincubated with an equal volume of autoBACE-2 enzyme diluted in 1×BACE assay buffer (final enzyme concentration 1 nM) in black 384-well NUNC plates for 30 minutes at 30° C. […] DMSO is present at 5% final concentration in the assay. Following laser excitation of sample wells at 320 nm, the fluorescence signal at 620 nm is collected for 400 ms following a 50 μs delay on a RUBYstar HTRF plate reader (BMG Labtechnologies). Raw RFU data is normalized to maximum (1.0 nM BACE/DMSO) and minimum (no enzyme/DMSO) RFU values. IC50s are determined by nonlinear regression analysis (sigmoidal dose response, variable slope) of percent inhibition data with minimum and maximum values set to 0 and 100 percent respectively. Similar IC50s are obtained when using raw RFU data. The Ki values are calculated from the IC50 using the Cheng-Prusoff equation.

[2] = biological target: Recombinant human soluble BACE1 catalytic domain (Homo sapiens (Human), UniProt P56817); test: BACE1 HTRF FRET Assay; assay type: biochemical; conditions: Ki calculated from IC50 using the Cheng-Prusoff equation; QSY7-APPswe-Eu substrate, pH 5.0; read-out: BACE-1 Ki
Source text: Reagents: Na^+-Acetate pH 5.0; 1% Brij-35; Glycerol; Dimethyl Sulfoxide (DMSO); Recombinant human soluble BACE1 catalytic domain (>95% pure); APP Swedish mutant peptide substrate (QSY7-APP^swe-Eu): QSY7-EISEVNLDAEFC-Europium-amide.
A homogeneous time-resolved FRET assay can be used to determine IC50 values for inhibitors of the soluble human BACE1 catalytic domain. This assay monitors the increase of 620 nm fluorescence that resulted from BACE1 cleavage of an APPswedish APP^swe mutant peptide FRET substrate (QSY7-EISEVNLDAEFC-Europium-amide). This substrate contains an N-terminal QSY7 moiety that serves as a quencher of the C-terminal Europium fluorophore (620 nm Em). In the absence of enzyme activity, 620 nm fluorescence is low in the assay and increased linearly over 3 hours in the presence of uninhibited BACE1 enzyme. Inhibition of BACE1 cleavage of the QSY7-APP^swe-Eu substrate by inhibitors is manifested as a suppression of 620 nm fluorescence.
Varying concentrations of inhibitors at 3× the final desired concentration in a volume of 10 ul are preincubated with purified human BACE1 catalytic domain (3 nM in 10 μl) for 30 minutes at 30° C. in reaction buffer containing 20 mM Na-Acetate pH 5.0, 10% glycerol, 0.1% Brij-35 and 7.5% DSMO. Reactions are initiated by addition of 10 μl of 600 nM QSY7-APP^swe-Eu substrate (200 nM final) to give a final reaction volume of 30 μl in a 384 well Nunc HTRF plate. The reactions are incubated at 30° C. for 1.5 hours. The 620 nm fluorescence is then read on a Rubystar HTRF plate reader (BMG Labtechnologies) using a 50 millisecond delay followed by a 400 millisecond acquisition time window. Inhibitor IC50 values are derived from non-linear regression analysis of concentration response curves. Ki values are then calculated from IC50 values using the Cheng-Prusoff equation using a previously determined […] of 8 μM for the QSY7-APP^swe-Eu substrate at BACE1.

Chain of Recombinant human soluble BACE1 catalytic domain (P56817 75-416): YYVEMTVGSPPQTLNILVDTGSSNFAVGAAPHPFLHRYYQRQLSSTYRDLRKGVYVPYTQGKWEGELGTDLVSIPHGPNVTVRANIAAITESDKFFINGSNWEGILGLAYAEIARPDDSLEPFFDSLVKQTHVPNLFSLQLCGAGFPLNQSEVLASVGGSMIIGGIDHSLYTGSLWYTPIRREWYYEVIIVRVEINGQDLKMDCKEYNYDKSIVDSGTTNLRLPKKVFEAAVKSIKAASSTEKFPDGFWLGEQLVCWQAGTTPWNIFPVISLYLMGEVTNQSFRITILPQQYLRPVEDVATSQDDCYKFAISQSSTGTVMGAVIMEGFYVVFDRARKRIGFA
Chain of purified human autoBACE-2 (Q9Y5Z0 63-518): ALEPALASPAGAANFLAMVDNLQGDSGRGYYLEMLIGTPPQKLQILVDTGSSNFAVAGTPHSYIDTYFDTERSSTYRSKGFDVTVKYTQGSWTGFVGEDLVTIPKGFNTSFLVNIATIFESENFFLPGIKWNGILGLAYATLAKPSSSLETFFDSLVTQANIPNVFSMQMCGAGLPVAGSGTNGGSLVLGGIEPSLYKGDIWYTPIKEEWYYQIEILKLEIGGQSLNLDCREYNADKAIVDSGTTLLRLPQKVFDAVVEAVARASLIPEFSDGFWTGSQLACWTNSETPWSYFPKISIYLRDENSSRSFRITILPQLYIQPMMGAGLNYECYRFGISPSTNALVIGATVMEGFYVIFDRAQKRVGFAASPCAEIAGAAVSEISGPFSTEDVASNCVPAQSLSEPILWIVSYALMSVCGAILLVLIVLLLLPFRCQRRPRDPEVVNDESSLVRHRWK

Row | Compound | Ki [1] [nM] | Ki [2] [nM]
1 | CC1(C)C[C@@H]2[C@](c3cc(OCC4CC4)ccc3F)(CO1)NC(=N)C(C)(C)S2(=O)=O [Example 22, (4aS,8aR)-4a-[5-(cyclopropylmethoxy)-2-fluorophenyl]-2,2,7,7-tetramethyltetrahydro-2H,5H-pyrano[4,3-b][1,4]thiazin-3(4H)-imine 1,1-dioxide] | 35.6 | 120
2 | CC(C)COc1ccc(F)c([C@]23COC(C)(C)C[C@H]2S(=O)(=O)C(C)(C)C(=N)N3)c1 [Example 23, (4aS,8aR)-4a-[2-fluoro-5-(2-methylpropoxy)phenyl]-2,2,7,7-tetramethyltetrahydro-2H,5H-pyrano[4,3-b][1,4]thiazin-3(4H)-imine 1,1-dioxide] | 66.7 | 172
3 | CC1(C)C[C@@H]2[C@](c3cc(OC4CCC4)ccc3F)(CO1)NC(=N)C(C)(C)S2(=O)=O [Example 24] | 109 | 183
4 | CC(C)[C@H]1C[C@@H]2[C@](c3ccccc3F)(CO1)NC(=N)C(C)(C)S2(=O)=O [Example 25, (4aS,7R,8aR)-4a-(2-fluorophenyl)-2,2-dimethyl-7-(propan-2-yl)tetrahydro-2H,5H-pyrano[4,3-b][1,4]thiazin-3(4H)-imine 1,1-dioxide] | 195 | 185
